For 24 compounds, IC50 and inhibition results are on record in US20120004244A1, “Bis Aromatic Compounds for Use as LTC4 Synthase Inhibitors” (BIOLIPOX AB, priority 2009, published 2012).

Molecules are shown by their SMILES.

In one experiment the target is T1, Recombinant human LTC4 synthase (Homo sapiens, UniProt Q16873).
T1 construct: made in house; host or cells: Pichia pastoris ('Piccia pastoralis' [sic])
T1 sequence (Q16873 1-150): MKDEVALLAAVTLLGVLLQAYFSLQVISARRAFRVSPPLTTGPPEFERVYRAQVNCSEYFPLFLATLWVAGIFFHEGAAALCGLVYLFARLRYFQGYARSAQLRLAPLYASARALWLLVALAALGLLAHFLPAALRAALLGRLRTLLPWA
Put plainly: LTC4 synthase in vitro assay (LTA4 to LTC4, HTRF detection). The format is biochemical.
Conditions: not given
The method, then: In the assay, LTC4 synthase catalyses the reaction where the substrate LTA4 is converted to LTC4. Recombinant human LTC4 synthase is expressed in Piccia pastoralis and the purified enzyme is dissolved in 25 mM tris-buffer pH 7.8 supplemented with 0.1 mM glutathione (GSH) and stored at −80° C. The assay is performed in phosphate buffered saline (PBS) pH 7.4 and 5 mM GSH in 384-well plates.
The following is added chronologically to each well:
1.48 μL LTC4 synthase in PBS with 5 mM GSH. The total protein concentration in this solution is 0.5 μg/mL. 2. 1 μL inhibitor in DMSO (final concentration 10 μM). 3. Incubation of the plate at room temperature for 10 min. 4. 1 μL LTA4 (final concentration 2.5 μM). 5. Incubation of the plate at room temperature for 5 min. 6. 10 μL of the incubation mixture is analysed using homogenous time resolved fluorescent (HTRF) detection.
(TR-FRET usually uses a lanthanide donor and a delayed reading to cut background.)
Take `O=C(c1ccc(Oc2ccccc2)c(C(=O)O)c1)c1ccc(Nc2ccc(Cl)cc2)cn1` [1:29, 5-[5-(4-Chlorophenylamino)picolinoyl]-2-phenoxybenzoic acid]: the IC50 – broadly, the point on the concentration scale where inhibition reaches its midpoint – worked out at 282 nM. As for `COc1cccc(Oc2ccc(C(=O)c3ccc(N(CC4CC4)c4ccc(Cl)cc4)cn3)cc2C(=O)O)c1` [1:30, 5-{5-[(4-Chlorophenyl)(cyclopropylmethyl)amino]picolinoyl}-2-(3-methoxyphenoxy)benzoic acid], the 50% inhibitory concentration (IC50) was 158 nM.

For `O=C(c1ccc(Oc2ccc3c(c2)OCO3)c(C(=O)O)c1)c1ccc(N(CC2CC2)c2ccc(Cl)cc2)cn1` [1:31, 5-{5-[(4-Chlorophenyl)(cyclopropylmethyl)amino]picolinoyl}-2-(3,4-methylenedioxyphenoxy)benzoic acid], the half-inhibitory concentration (IC50) is 142 nM. On the same count and under the same terms, to `N#Cc1ccccc1Oc1ccccc1Oc1ccc(C(=O)c2ccc(N(CC3CC3)c3ccc(Cl)cc3)cn2)cc1C(=O)O` [1:32, 5-{5-[(4-Chlorophenyl)(cyclopropylmethyl)amino]picolinoyl}-2-[2-(2-cyanophenoxy)phenoxy]benzoic acid] belongs 20 nM.

Consider `C#CCN(c1ccc(C(=O)c2ccc(Oc3ccccc3F)c(C(=O)O)c2)nc1)c1ccc(Cl)cc1F` [1:33, 5-{5-[(4-Chloro-2-fluorophenyl)(2-propynyl)amino]picolinoyl}-2-(2-fluorophenoxy)benzoic acid], for which the IC50 is 351 nM. Turning to `O=C(c1ccc(Oc2ccccc2F)c(C(=O)O)c1)c1ccc(N(CC2CC2)c2ccc(Cl)cc2F)cn1` [1:34, 5-{5-[(4-Chloro-2-fluorophenyl)(cyclopropylmethyl)amino]picolinoyl}-2-(2-fluorophenoxy)benzoic acid], the half-maximal inhibitory concentration (IC50) stood at 195 nM. The same measure, in the same setting: to `O=C(c1ccc(Oc2ccccc2F)c(C(=O)O)c1)c1ccc(N(CC(F)(F)F)c2ccc(Cl)cc2F)cn1` [1:35, 5-{5-[(4-Chloro-2-fluorophenyl)-(2,2,2-trifluoroethyl)amino]picolinoyl}-2-(2-fluorophenoxy)benzoic acid] belongs 621 nM; to `O=C(c1ccc(Oc2ccccc2CCCO)c(C(=O)O)c1)c1ccc(N(CC2CC2)c2ccc(Cl)cc2)cn1` [1:36, 5-{5-[(4-Chlorophenyl)(cyclopropylmethyl)amino]picolinoyl}-2-[2-(3-hydroxypropyl)phenoxy]benzoic acid], 116 nM. For the compound `CS(=O)(=O)c1ccc(Oc2ccc(C(=O)c3ccc(N(CC4CC4)c4ccc(Cl)cc4)cn3)cc2C(=O)O)cc1` [1:37, 5-{5-[(4-Chlorophenyl)(cyclopropylmethyl)amino]picolinoyl}-2-(4-methylsulfonylphenoxy)benzoic acid], the half-inhibitory concentration (IC50) amounted to 300 nM. On the same count and under the same terms, to `O=C(c1ccc(Oc2ccccc2F)c(C(=O)O)c1)c1ccc(N(CC2CC2)c2ccc(Cl)cc2)cn1` [1:38, 5-{5-[(4-Chlorophenyl)(cyclopropylmethyl)amino]picolinoyl}-2-(2-fluorophenoxy)benzoic acid] belongs 79 nM. On the same count and under the same terms, to `COc1cc(OC)cc(Oc2ccc(C(=O)c3ccc(N(CC4CC4)c4ccc(Cl)cc4)cn3)cc2C(=O)O)c1` [1:39, 5-{5-[(4-Chlorophenyl)(cyclopropylmethyl)amino]picolinoyl}-2-(3,5-dimethoxyphenoxy)benzoic acid] belongs 70 nM.

Consider `O=C(c1ccc(Oc2ccccc2Oc2ccccc2)c(C(=O)O)c1)c1ccc(N(CC2CC2)c2ccc(Cl)cc2)cn1` [1:40, 5-{5-[(4-Chlorophenyl)(cyclopropylmethyl)amino]picolinoyl}-2-(2-phenoxyphenoxy)benzoic acid], for which the half-inhibitory concentration (IC50) is 66 nM.

On to `CC1(CN(c2ccc(C(=O)c3ccc(Oc4ccccc4F)c(C(=O)O)c3)nc2)c2ccc(Cl)cc2F)COC1` [1:41, 5-{5-[(4-Chloro-2-fluorophenyl)-(3-methyloxetan-3-ylmethyl)amino]picolinoyl}-2-(2-fluorophenoxy)benzoic acid], for which the concentration for half-maximal inhibition (IC50) came out at 1320 nM.

On to `O=C(c1ccc(Oc2ccccc2Oc2ccc(F)cc2F)c(C(=O)O)c1)c1ccc(N(CC2CC2)c2ccc(Cl)cc2)cn1` [1:42, 5-{5-[(4-Chlorophenyl)(cyclopropylmethyl)amino]picolinoyl}-2-[2-(2,4-difluorophenoxy)phenoxy]benzoic acid], for which the IC50 came out at 52 nM. Consider `O=C(c1ccc(Oc2ccccc2Oc2cccnc2)c(C(=O)O)c1)c1ccc(N(CC2CC2)c2ccc(Cl)cc2)cn1` [1:43, 5-{5-[(4-Chlorophenyl)(cyclopropylmethyl)amino]picolinoyl}-2-[2-(3-pyridyloxy)phenoxy]benzoic acid], for which the IC50 worked out at 61 nM. `O=C(c1ccc(Oc2ccccc2Oc2ccccn2)c(C(=O)O)c1)c1ccc(N(CC2CC2)c2ccc(Cl)cc2)cn1` [1:44, 5-{5-[(4-Chlorophenyl)(cyclopropylmethyl)amino]picolinoyl}-2-[2-(2-pyridyloxy)phenoxy]benzoic acid]: the half-inhibitory concentration (IC50) was determined as 57 nM. The same measure, in the same setting: to `O=C(c1ccc(Oc2ccccc2Oc2ccccc2Cl)c(C(=O)O)c1)c1ccc(N(CC2CC2)c2ccc(Cl)cc2)cn1` [1:45, 2-[2-(2-Chlorophenoxy)phenoxy]-5-{5-[(4-chlorophenyl)(cyclopropylmethyl)amino]picolinoyl}benzoic acid] belongs 32 nM. On the same count and under the same terms, to `O=C(c1ccc(Oc2ccccc2Oc2ccccc2F)c(C(=O)O)c1)c1ccc(N(CC2CC2)c2ccc(Cl)cc2)cn1` [1:46, 5-{5-[(4-Chlorophenyl)(cyclopropylmethyl)amino]picolinoyl}-2-[2-(2-fluorophenoxy)phenoxy]benzoic acid] belongs 40 nM; to `CN(c1ccc(Cl)cc1)c1ccc(C(=O)c2ccc(Oc3ccccc3[S+](C)[O-])c(C(=O)O)c2)nc1` (stereo not drawn) [1:47, 5-{5-[(4-Chlorophenyl)(methyl)amino]picolinoyl}-2-(2-methylsulfinylphenoxy)-benzoic acid], 1030 nM.

As to `CN(c1ccc(Cl)cc1)c1ccc(C(=O)c2ccc(Oc3ccccc3S(C)(=O)=O)c(C(=O)O)c2)nc1` [1:48, 5-{5-[(4-Chlorophenyl)(methyl)amino]picolinoyl}-2-(2-methylsulfonylphenoxy)-benzoic acid], the IC50 came to 632 nM. Same read-out and setting: to `CN(c1ccc(Cl)cc1)c1ccc(C(=O)c2ccc(Nc3ccc(C(F)(F)F)cc3)c(C(=O)O)c2)nc1` [2:1, 5-{5-[(4-Chlorophenyl)(methyl)amino]picolinoyl}-2-(4-trifluoromethylphenyl-amino)benzoic acid] belongs 53 nM. Still for that read-out and setting: to `CN(c1ccc(Cl)cc1)c1ccc(C(=O)c2ccc(NC3CCC(C(C)(C)C)CC3)c(C(=O)O)c2)nc1` (stereo not drawn) [2:2, 2-(4-tert-Butylcyclohexylamino)-5-{5-[(4-chlorophenyl)(methyl)amino]picolinoyl}-benzoic acid] belongs 66 nM; to `CN(c1ccc(Cl)cc1)c1ccc(C(=O)c2ccc(NCc3ccccc3)c(C(=O)O)c2)nc1` [2:3, 2-Benzylamino-5-{5-[(4-chlorophenyl)(methyl)amino]picolinoyl}benzoic acid], 92 nM. Same read-out and setting: to `CN(c1ccc(Cl)cc1)c1ccc(C(=O)c2ccc(NC3CCCCC3)c(C(=O)O)c2)nc1` [2:4, 5-{5-[(4-Chlorophenyl)(methyl)amino]picolinoyl}cyclohexylaminobenzoic acid] belongs 140 nM.

Still in this experiment, the particulars now being: 5 min; total concentration of title compound in the assay 10 μM.
For `CN(c1ccc(Cl)cc1)c1ccc(C(=O)c2ccc(Oc3ccccc3[S+](C)[O-])c(C(=O)O)c2)nc1` (stereo not drawn) [1:47, 5-{5-[(4-Chlorophenyl)(methyl)amino]picolinoyl}-2-(2-methylsulfinylphenoxy)-benzoic acid], the inhibition – broadly, the share of the control response that was lost under treatment – at 10 µM worked out at 88%. Turning to `CN(c1ccc(Cl)cc1)c1ccc(C(=O)c2ccc(Oc3ccccc3S(C)(=O)=O)c(C(=O)O)c2)nc1` [1:48, 5-{5-[(4-Chlorophenyl)(methyl)amino]picolinoyl}-2-(2-methylsulfonylphenoxy)-benzoic acid], the inhibition at 10 µM came to 95%.

Turning to `CN(c1ccc(Cl)cc1)c1ccc(C(=O)c2ccc(Nc3ccc(C(F)(F)F)cc3)c(C(=O)O)c2)nc1` [2:1, 5-{5-[(4-Chlorophenyl)(methyl)amino]picolinoyl}-2-(4-trifluoromethylphenyl-amino)benzoic acid], the inhibition at 10 µM is 99%.
